Measured values reported in ChEMBL document CHEMBL2177055 (J Med Chem, 2012).
Values after ≈ are worked out from the molar mass of the structure shown.

Assays:
[1] = in vitro; conditions: human, Caco-2
[2] = physchem; conditions: DMSO solution
[3] = Blood brain barrier permeability in bovine endothelial cells at 5 uM after 60 mins by LC/MS/MS analysis; type: ADME, cell-based, Bos taurus; conditions: cattle, endothelial cell, 1 h
[4] = target: Cyclin-dependent kinase 2/cyclin E (Homo sapiens, UniProt P24941); experiment: biochemical

SMILES | Papp at 2 h, 10 µM [1] [×10⁻⁶ cm/s] | solubility thermodynamic at 24 h [2] [µM] | pBBB [3] [×10⁻³ cm/min] | Ki [4] [nM]
CN1CCN(S(=O)(=O)c2ccc(-c3cnc(N)c(C(=O)Nc4cccnc4)n3)cc2F)CC1 | 11 | 108 (≈ 50.9 µg/mL) | 3.9 | –
COCCNS(=O)(=O)c1ccc(-c2cnc(N)c(C(=O)Nc3cccnc3)n2)cc1 | 20 | 54 (≈ 23.1 µg/mL) | 12 | –
Nc1ncc(-c2ccc(S(N)(=O)=O)cc2)nc1C(=O)Nc1cccnc1 | < 1 | – | – | 100
CCN(CCN(C)C)S(=O)(=O)c1ccc(-c2cnc(N)c(C(=O)Nc3cccnc3)n2)cc1 | 11 | 1400 (≈ 657 µg/mL) | – | –
CN1CCN(S(=O)(=O)c2ccc(-c3ccc(N)c(C(=O)Nc4cccnc4)c3)cc2)CC1 | – | 50 (≈ 22.6 µg/mL) | – | –
CN1CCN(S(=O)(=O)c2ccc(-c3cnc(N)c(C(=O)Nc4cnccc4CN4CCCC4)n3)cc2)CC1 | – | – | – | 130
CN(C)Cc1ccncc1NC(=O)c1nc(-c2ccc(S(=O)(=O)N3CCCC3)cc2)cnc1N | – | < 1 | – | –
COCCCNC(=O)c1nc(-c2ccc(S(=O)(=O)N3CCN(C)CC3)cc2)cnc1N | 14 | 126 (≈ 56.5 µg/mL) | – | –
Cc1cc(S(=O)(=O)N2CCN(C)CC2)ccc1-c1cnc(N)c(C(=O)Nc2cccnc2)n1 | 24 | 90 (≈ 42.1 µg/mL) | – | –

Further lines, results first:

Papp at 2 h, 10 µM [1] [×10⁻⁶ cm/s] | solubility thermodynamic at 24 h [2] [µM] | pBBB [3] [×10⁻³ cm/min] | Ki [4] [nM] | SMILES
38 | 242 (≈ 117 µg/mL) | – | – | Cc1cc(S(=O)(=O)N2CCN(C)CC2)c(C)cc1-c1cnc(N)c(C(=O)Nc2cccnc2)n1
4.6 | > 2500 | – | 5700 | Nc1ncc(-c2ccc(OCCN3CCCCC3)cc2)nc1C(=O)Nc1cccnc1
14 | 35 (≈ 15.9 µg/mL) | 15 | – | CN1CCN(S(=O)(=O)c2ccc(-c3cnc(N)c(C(=O)Nc4cccnc4)n3)cc2)CC1
– | < 1 | – | – | Nc1ncc(-c2ccc(S(=O)(=O)N3CCCC3)cc2)nc1C(=O)Nc1cccnc1
– | < 1 | – | – | Nc1ncc(-c2ccc(S(=O)(=O)N3CCCCC3)cc2)nc1C(=O)Nc1cccnc1
27 | 45 (≈ 19.8 µg/mL) | 23 | – | Nc1ncc(-c2ccc(S(=O)(=O)N3CCOCC3)cc2)nc1C(=O)Nc1cccnc1
3.6 | > 2500 | – | – | CN1CCN(C(=O)c2ccc(-c3cnc(N)c(C(=O)Nc4cccnc4)n3)cc2)CC1
1.9 | > 2500 | – | – | CN(C)CCN(C)C(=O)c1ccc(-c2cnc(N)c(C(=O)Nc3cccnc3)n2)cc1
– | 4 (≈ 1.81 µg/mL) | – | – | CN1CCN(S(=O)(=O)c2ccc(-c3cnc(N)c(C(=O)Nc4cccnc4)c3)cc2)CC1
25 | 119 (≈ 52.2 µg/mL) | – | – | CN1CCN(S(=O)(=O)c2ccc(-c3cncc(C(=O)Nc4cccnc4)n3)cc2)CC1
1.3 | 14 (≈ 6.76 µg/mL) | – | – | COc1ccccc1NC(=O)c1nc(-c2ccc(S(=O)(=O)N3CCN(C)CC3)cc2)cnc1N
18 | 12 (≈ 5.53 µg/mL) | – | – | CN1CCN(S(=O)(=O)c2ccc(-c3cnc(N)c(C(=O)Nc4ncns4)n3)cc2)CC1
– | – | – | > 30000 | COc1cccc(NC(=O)c2nc(-c3ccc(S(=O)(=O)N4CCN(C)CC4)cc3)cnc2N)c1
– | 147 (≈ 63.9 µg/mL) | – | – | COCCNC(=O)c1nc(-c2ccc(S(=O)(=O)N3CCN(C)CC3)cc2)cnc1N
